In paper PMC11173533, “Baicalin and Baicalein Enhance Cytotoxicity, Proapoptotic Activity, and Genotoxicity of Doxorubicin and Docetaxel in MCF-7 Breast Cancer Cells” (Molecules, 2024):

Assays:
Format in all cases: cell-based, human
MCF-7 cells [1] = test: MTT cell viability assay on MCF-7 cells; conditions: for IC50: Homo sapiens, MCF7, 2 h incubation, breast cancer cells, used for both cell lines, read-out: Drug IC50 concentration from MTT survival curves; for Concentrations giving statistically significant decrease in survival: MCF-7, 2 h incubation with anticancer drug, MTT
Experimental: (§1) Unless otherwise indicated, in experiments, cells were seeded at an appropriate density for the specific assay into 96-well plates or Petri dishes. They were then incubated in standard culture conditions, which included a temperature of 37 °C, 100% relative humidity, and a 5% CO2 incubator. […] After treatment, the cells were washed with PBS and, depending on the experiment, immediately used for measurement or cultured in a fresh medium for 24 or 48 h. Control cells were treated with a corresponding volume of PBS. Additional controls for solvents were also performed.
(§2) The principle of the method is a measurement of the absorbance of formazan, a product of the reduction of the water-soluble tetrazolium salt (MTT) by NADPH-dependent cellular oxidoreductases (mainly succinate dehydrogenase) in living cells. Formazan is insoluble in water and precipitates as purple crystals. The amount of formazan is proportional to the number of living and metabolically active cells.
(§3) After treatment, the cells were washed with PBS and cultured in a fresh medium for 48 h. Subsequently, the medium was aspirated, and an aliquot of 50 µL of 0.05 mg/mL MTT solution was added to each microplate well for 3 h. The formazan crystals were dissolved in dimethyl sulfoxide (DMSO), and the absorbance was measured at a wavelength of λ = 580 nm. The percentage of viable cells was calculated by comparing the absorbance value of the test samples to the absorbance value of the control, taking the absorbance of the control as 100%.

HUVEC-ST cells [2] = test: MTT cell viability assay on HUVEC-ST cells; conditions: HUVEC-ST, MTT
Experimental: as §1, §2, §3

MCF-7 cells [3] = test: Annexin V FITC/propidium iodide double staining in MCF-7 cells; conditions: for Viable cells: docetaxel IC50 alone
Experimental: as §1
(§4) This assay is based on the principle that, in viable cells, phosphatidylserine (PS) is located in the inner membrane (side facing the cytoplasm). However, upon induction of apoptosis, PS is translocated to the outer membrane (PS also appears on the necrotic cell surface). The exposed phosphatidylserine can be detected by protein Annexin V stained with FITC dye. The addition of propidium iodide (PI) enabled necrotic cells to be distinguished. Thus, this method is convenient for counting and differentiating live cells from those undergoing apoptosis or necrosis.
(§5) The analysis was performed according to the manufacturer’s protocol on cells immediately after the treatment and 24 or 48 h postincubation. Samples were analyzed using the flow cytometer LSR® II from Becton Dickinson (San Jose, CA, USA) using an argon laser with a wavelength of λ = 488 nm.

HUVEC-ST cells [4] = test: Annexin V FITC/propidium iodide double staining in HUVEC-ST cells; conditions: docetaxel IC50 alone
Experimental: as §1, §4, §5

MCF-7 cells [5] = test: Mitochondrial membrane potential (JC-1) in MCF-7 cells; conditions: anticancer drug IC50 alone 2 h, control = 100%
Experimental: as §1
(§6) The mitochondrial membrane potential was measured with the membrane-permeant JC-1 fluorescent probe. […] Thus, the measurement of the ratio of JC-1 dimer to monomer fluorescence can be used for estimating changes in mitochondrial membrane potential (ΔΨm).
(§7) The cells were then incubated in complete darkness for 30 min at 37 °C. After incubation, the cells were washed to remove the dye and suspended in fresh HBSS solution. Finally, the fluorescence intensity was measured using a Cary Eclipse spectrofluorometer (Varian, Inc.) at λex/em = 475 nm/530 nm for monomers and at λex/em = 535 nm/590 nm for dimers. Subsequently, the ratio of the fluorescence intensities at 530 nm/590 nm was calculated. The mitochondrial potential in both cell lines was measured immediately after incubation with investigated compounds. The results are expressed as a percentage of the control, considered 100%.

HUVEC-ST cells [6] = test: Mitochondrial membrane potential (JC-1) in HUVEC-ST cells; conditions: anticancer drug IC50 alone 2 h, control = 100%
Experimental: as §1, §6, §7

[7] = Annexin V FITC/propidium iodide double staining in HUVEC-ST cells; conditions: human, HUVEC-ST cells, doxorubicin IC50 alone, longest postincubation time (48 h), read-out: Viable cells
Experimental: as §1, §4, §5

HUVEC-ST cells [8] = test: Alkaline comet assay in HUVEC-ST cells; conditions: doxorubicin IC50 alone, 48 h after incubation
Experimental: as §1
The comet assay, also known as the single-cell gel electrophoresis assay, is a highly sensitive and versatile method for measuring single- and double-stranded DNA breaks. The assay uses an electric field to move negatively charged DNA fragments through an agarose gel. The amount of migration reflects the level of DNA damage in the cells.
The analysis was performed under alkaline conditions, according to the method of Singh et al., on cells immediately after the treatment and 24 or 48 h postincubation. A suspension of cells was mixed with low-melting-point agarose (LMP type XI) and spread onto a microscope glass slide previously coated with standard melting point agarose (NMP type I). After 2 h of cells lysis in a buffer containing (2.5 mol/L NaCl, 100 mmol/L Na2-EDTA, 10 mmol/L TRIS, 1% Triton X-100), DNA unwinding and electrophoresis were carried out in a buffer containing (1 mmol/L Na2-EDTA, 300 mmol/L NaOH) and (29 V, 30 mA). Before analysis, the slides were stained with DAPI solution (2 μg/mL). One hundred randomly chosen cells were analyzed on each slide using a fluorescence microscope Zeiss Axio Scope A1 (Carl Zeiss, Oberkochen, Germany) with a video camera connected to the image-analysis system Lucia-Comet v. 7.60 (Laboratory Imaging, Praha, Czech Republic).

Row | Compound | IC50 (MCF-7 cells [1]) [nM] | Concentrations giving statistically significant decrease in survival (MCF-7 cells [1]) [µmol/L] | Decrease in survival at highest concentration (HUVEC-ST cells [2]; 6 µmol/L, 2 h incubation) [%] | Viable cells (MCF-7 cells [3]; 24 h after incubation) [%] | Viable cells (MCF-7 cells [3]; 48 h after incubation) [%] | AV+/PI+ cells (HUVEC-ST cells [4]; 24 h after incubation) [%] | AV+/PI+ cells (HUVEC-ST cells [4]; longest postincubation time (48 h)) [%] | Mitochondrial membrane potential ΔΨm, % of control (MCF-7 cells [5]) [%] | Mitochondrial membrane potential ΔΨm, % of control (HUVEC-ST cells [6]) [%] | Viable cells (MCF-7 cells [1]; MCF-7, doxorubicin 3 µmol/L used alone) [%] | Concentrations giving statistically significant decrease in survival (HUVEC-ST cells [2]; 2 h incubation with anticancer drug) [µmol/L] | AV+/PI− cells (undergoing apoptosis) (MCF-7 cells [3]; doxorubicin IC50 alone, 48 h post-incubation) [%] | viability [7] [%] | DNA in the comet tail (HUVEC-ST cells [8]) [%]
1 | CC(=O)O[C@@]12CO[C@@H]1C[C@H](O)[C@@]1(C)C(=O)[C@H](O)C3=C(C)[C@@H](OC(=O)[C@H](O)[C@@H](NC(=O)OC(C)(C)C)c4ccccc4)C[C@@](O)([C@@H](OC(=O)c4ccccc4)[C@H]21)C3(C)C [docetaxel] | 100 | ≥ 0.02 | 20 | 53 | 43 | 23 | 26 | 65 | 54 |  |  |  |  | 
2 | COc1cccc2c1C(=O)c1c(O)c3c(c(O)c1C2=O)C[C@@](O)(C(=O)CO)C[C@@H]3O[C@H]1C[C@H](N)[C@H](O)[C@H](C)O1 [doxorubicin, Doxorubicin] | 3000 | ≥ 1 |  |  |  |  |  | 57 | 73 | 54 | ≥ 0.5 | 12 | 47 | 10
